Row | Structure (SMILES) | melting point
1 | CCCCOCCOc1ccc(-c2ccc3c(c2)C=C(C(=O)Nc2ccc([S+]([O-])Cc4nncn4C)cc2)CCN3CC(C)C)cc1 (stereo not drawn) [Compound 131, 7-[4-(2-butoxyethoxy)phenyl]-N-[4-(4-methyl-4H-1,2,4-triazol-3-ylmethylsulfinyl)phenyl]-1-isobutyl-2,3-dihydro-1H-1-benzazepine-4-carboxamide] | 103 to 105 °C
2 | CCCCOCCOc1ccc(-c2ccc3c(c2)C=C(C(=O)Nc2ccc([S+]([O-])Cc4nncn4C)cc2)CCN3CCC)cc1 (stereo not drawn) [Compound 133, 7-[4-(2-butoxyethoxy)phenyl]-N-[4-(4-methyl-4H-1,2,4-triazol-3-ylmethylsulfinyl)phenyl]-1-propyl-2,3-dihydro-1H-1-benzazepine-4-carboxamide] | 101 to 103 °C
3 | CCCCOCCOc1ccc(-c2ccc3c(c2)C=C(C(=O)Nc2ccc([S+]([O-])Cc4nncn4CCCC)cc2)CCN3CC(C)C)cc1 (stereo not drawn) [Compound 143, 7-[4-(2-butoxyethoxy)phenyl]-N-[4-(4-n-butyl-4H-1,2,4-triazol-3-ylmethylsulfinyl)phenyl]-1-isobutyl-2,3-dihydro-1H-benzazepine-4-carboxamide] | 178 to 180 °C
4 | CCCCOCCOc1ccc(-c2ccc3c(c2)C=C(C(=O)Nc2ccc([S+]([O-])Cc4nncn4CCCC)cc2)CCN3CCC)cc1 (stereo not drawn) [Compound 145, 7-[4-(2-butoxyethoxy)phenyl]-N-[4-(4-n-butyl-4H-1,2,4-triazol-3-ylmethylsulfinyl)phenyl]-1-propyl-2,3-dihydro-1H-benzazepine-4-carboxamide] | 157 to 160 °C
5 | CCCCOCCOc1ccc(-c2ccc3c(c2)C=C(C(=O)Nc2ccc([S+]([O-])Cc4nnc(SC)n4CCC)cc2)CCN3CC(C)C)cc1 (stereo not drawn) [Compound 149, 7-[4-(2-butoxyethoxy)phenyl]-1-isobutyl-N-[4-(5-methylthio-4-propyl-4H-1,2,4-triazol-3-ylmethylsulfinyl)phenyl]-2,3-dihydro-1H-benzazepine-4-carboxamide] | 150 to 152 °C
6 | CCCCOCCOc1ccc(-c2ccc3c(c2)C=C(C(=O)Nc2ccc(N(C)Cc4nncn4CCC)cc2)CCN3CC(C)C)cc1 [Compound 150, 7-[4-(2-butoxyethoxy)phenyl]-1-isobutyl-N-[4-[methyl(4-propyl-4H-1,2,4-triazol-3-ylmethyl)amino]phenyl]-2,3-dihydro-1H-benzazepine-4-carboxamide] | 134 to 136 °C
7 | CCCCOCCOc1ccc(-c2ccc3c(c2)C=C(C(=O)Nc2ccc(N(C)Cc4nncn4CCC)cc2)CCN3CCC)cc1 [Compound 151, 7-[4-(2-butoxyethoxy)phenyl]-N-[4-[methyl(4-propyl-4H-1,2,4-triazol-3-ylmethyl)amino]phenyl]-1-propyl-2,3-dihydro-1H-benzazepine-4-carboxamide] | 131 to 133 °C
8 | CCCCOCCOc1ccc(-c2ccc3c(c2)C=C(C(=O)Nc2ccc([S+]([O-])CCn4cnnc4)cc2)CCN3CC(C)C)cc1 (stereo not drawn) [Compound 155, 7-[4-(2-butoxyethoxy)phenyl]-N-[4-(4H-1,2,4-triazol-4-ylethylsulfinyl)phenyl]-1-isobutyl-2,3-dihydro-1H-benzazepine-4-carboxamide] | 168 to 170 °C
9 | CCCCOCCOc1ccc(-c2ccc3c(c2)C=C(C(=O)Nc2ccc(SCCn4cnnc4)cc2)CCN3CCC)cc1 [Compound 156, 7-[4-(2-butoxyethoxy)phenyl]-N-[4-(4H-1,2,4-triazol-4-ylethylthio)phenyl]-1-propyl-2,3-dihydro-1H-benzazepine-4-carboxamide] | 114 to 115 °C
10 | CCCCOCCOc1ccc(-c2ccc3c(c2)C=C(C(=O)Nc2ccc([S+]([O-])Cc4c(C)nc5ccccn45)cc2)CCN3CCC)cc1 (stereo not drawn) [Compound 165, 7-[4-(2-butoxyethoxy)phenyl]-N-[4-(2-methylimidazo[1,2-a]pyridin-3-ylmethylsulfinyl)phenyl]-1-propyl-2,3-dihydro-1H-benzazepine-4-carboxamide] | 134 to 137 °C
11 | CCCCOCCOc1ccc(-c2ccc3c(c2)C=C(C(=O)Nc2ccc([S+]([O-])c4cccc5nccn45)cc2)CCN3CC(C)C)cc1 (stereo not drawn) [Compound 169, 7-[4-(2-butoxyethoxy)phenyl]-1-isobutyl-N-[4-(imidazo[1,2-a]pyridin-5-ylsulfinyl)phenyl]-2,3-dihydro-1H-benzazepine-4-carboxamide] | 162 to 164 °C
12 | CCCCOCCOc1ccc(-c2ccc3c(c2)C=C(C(=O)Nc2ccc(Sc4cccc5nc(C)cn45)cc2)CCN3CC(C)C)cc1 [Compound 170, 7-[4-(2-butoxyethoxy)phenyl]-1-isobutyl-N-[4-(2-methylimidazo[1,2-a]pyridin-5-ylthio)phenyl]-2,3-dihydro-1H-benzazepine-4-carboxamide] | 164 to 166 °C
13 | CCCCOCCOc1ccc(-c2ccc3c(c2)C=C(C(=O)Nc2ccc(SCc4nccn4CCCC(=O)OCC)cc2)CCN3CC(C)C)cc1 [Compound 413, ethyl 4-[2-[[[4-[[[7-[4-(2-butoxyethoxy)phenyl]-1-isobutyl-2,3-dihydro-1H-1-benzazepin-4-yl]carbonyl]amino]phenyl]thio]methyl]-1H-imidazol-1-yl]butanoate] | 103 to 104 °C
14 | CCCCOCCOc1ccc(-c2ccc3c(c2)C=C(C(=O)Nc2ccc([S+]([O-])Cc4nccn4CCCC(=O)OCC)cc2)CCN3CC(C)C)cc1 (stereo not drawn) [Compound 414, ethyl 4-[2-[[[4-[[[7-[4-(2-butoxyethoxy)phenyl]-1-isobutyl-2,3-dihydro-1H-1-benzazepine-4-yl]carbonyl]amino]phenyl]sulfinyl]methyl]-1H-imidazol-1-yl]butanoate] | 134 to 136 °C
15 | CCCCOCCOc1ccc(-c2ccc3c(c2)C=C(C(=O)Nc2ccc(SCc4cncn4CC(N)=O)cc2)CCN3CC(C)C)cc1 [Compound 429, N-[4-[[[1-(2-amino-2-oxoethyl)-1H-imidazol-5-yl]methyl]thio]phenyl]-7-[4-(2-butoxyethoxy)phenyl]-1-isobutyl-2,3-dihydro-1H-1-benzazepine-4-carboxamide] | 152 to 154 °C
16 | CCCCOCCOc1ccc(-c2ccc3c(c2)C=C(C(=O)Nc2ccc([S+]([O-])Cc4cncn4CC(N)=O)cc2)CCN3CC(C)C)cc1 (stereo not drawn) [Compound 430, N-[4-[[[1-(2-amino-2-oxoethyl)-1H-imidazol-5-yl]methyl]sulfinyl]phenyl]-7-[4-(2-butoxyethoxy)phenyl]-1-isobutyl-2,3-dihydro-1H-1-benzazepine-4-carboxamide] | 123 to 125 °C
17 | CCCCOCCOc1ccc(-c2ccc3c(c2)C=C(C(=O)Nc2ccc(S(=O)(=O)Cc4cncn4CC(N)=O)cc2)CCN3CC(C)C)cc1 [Compound 431, N-[4-[[[1-(2-amino-2-oxoethyl)-1H-imidazol-5-yl]methyl]sulfonyl]phenyl]-7-[4-(2-butoxyethoxy)phenyl]-1-isobutyl-2,3-dihydro-1H-1-benzazepine-4-carboxamide] | 229 to 231 °C
18 | CCCCOCCOc1ccc(-c2ccc3c(c2)C=C(C(=O)Nc2ccc4c(c2)nc([S+]([O-])Cc2cncn2CCC)n4C)CCN3CC(C)C)cc1 (stereo not drawn) [Compound 445, 7-[4-(2-butoxyethoxy)phenyl]-1-isobutyl-N-[1-methyl-2-(((1-propylimidazol-5-yl)methyl)sulfinyl)benzimidazol-5-yl]-2,3-dihydro-1H-1-benzazepine-4-carboxamide] | 149.5 to 151 °C
